Reference: patent publication US12522594B2, “2-heteroaryl-3-oxo-2,3-dihydropyridazine-4-carboxamides for the treatment of cancer” (Deutsches Krebsforschungszentrum, priority 2017, dated 2026)

Assays:
[1] = biological target: T1, AHR (Homo sapiens, UniProt P35869); assay: In vitro assay 2: agonism in human cell line (transactivation assay, U87 cells, DRE firefly luciferase reporter); assay type: cell-based; set-up: host or cells: U87 glioblastoma cells, stably transfected with DRE firefly luciferase and renilla reporter constructs; conditions: no kynurenic acid, 20 hours, read-out: Assay 2: AHR-luc Hum Agonism IC50
T1 sequence (P35869 11-848): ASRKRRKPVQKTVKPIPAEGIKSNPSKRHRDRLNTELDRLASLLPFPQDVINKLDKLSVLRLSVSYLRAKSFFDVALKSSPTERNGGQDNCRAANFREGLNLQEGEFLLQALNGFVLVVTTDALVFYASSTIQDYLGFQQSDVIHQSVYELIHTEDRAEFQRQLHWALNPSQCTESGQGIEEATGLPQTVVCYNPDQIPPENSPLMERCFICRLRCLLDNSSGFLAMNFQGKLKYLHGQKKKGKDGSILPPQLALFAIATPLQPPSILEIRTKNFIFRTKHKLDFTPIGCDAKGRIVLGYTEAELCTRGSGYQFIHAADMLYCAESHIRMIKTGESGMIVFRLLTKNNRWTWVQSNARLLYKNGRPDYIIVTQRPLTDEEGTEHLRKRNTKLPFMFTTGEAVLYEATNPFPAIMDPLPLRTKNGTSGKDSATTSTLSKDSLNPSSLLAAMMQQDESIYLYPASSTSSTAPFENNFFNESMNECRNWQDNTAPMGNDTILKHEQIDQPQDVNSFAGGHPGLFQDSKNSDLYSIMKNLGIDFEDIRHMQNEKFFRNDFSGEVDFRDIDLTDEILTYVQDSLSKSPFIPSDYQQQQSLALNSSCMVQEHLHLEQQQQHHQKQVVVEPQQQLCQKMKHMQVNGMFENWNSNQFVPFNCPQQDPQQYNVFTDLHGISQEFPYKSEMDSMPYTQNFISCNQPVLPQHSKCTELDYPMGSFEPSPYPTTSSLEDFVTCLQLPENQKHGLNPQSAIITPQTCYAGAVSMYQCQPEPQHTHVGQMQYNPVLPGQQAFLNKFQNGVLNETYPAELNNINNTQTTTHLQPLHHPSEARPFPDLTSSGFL
In short: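 U87 glioblastoma cells with endogenous AHR, stably carrying DRE-driven firefly luciferase and constitutive renilla reporters. 300 uM kynurenic acid served as positive activation control; data normalized to positive and negative controls.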

[2] = biological target: T1, AHR; assay: In vitro assay 1: antagonism in human cell line (transactivation assay, U87 cells prestimulated with kynurenic acid, DRE firefly luciferase reporter); assay type: cell-based; set-up: host or cells: U87 glioblastoma cells, stably transfected with DRE firefly luciferase and renilla reporter constructs; conditions: 150 uM kynurenic acid, 20 hours, read-out: Assay 1: AHR-luc Hum Antagonism IC50
In short: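 U87 glioblastoma cells with endogenous AHR, stably carrying a DRE-driven firefly luciferase reporter and a constitutive renilla reporter. Cells prestimulated with the AHR agonist kynurenic acid before compound addition; data normalized to positive and negative controls.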

Row | IC50 [1] [nM] | IC50 [2] [nM] | SMILES
1 | > 20000 | 602 | C[C@@H](CO)NC(=O)c1cc(-c2ccc(CF)cc2)nn(-c2cccnc2)c1=O [Example 285, 6-[4-(Fluoromethyl)phenyl]-N-[(2S)-1-hydroxypropan-2-yl]-3-oxo-2-(pyridin-3-yl)-2,3-dihydropyridazine-4-carboxamide]
2 | > 20000 | 672 | CC(C)(O)CNC(=O)c1cc(-c2ccc(CF)cc2)nn(-c2cccnc2)c1=O [Example 286, 6-[4-(Fluoromethyl)phenyl]-N-(2-hydroxy-2-methylpropyl)-3-oxo-2-(pyridin-3-yl)-2,3-dihydropyridazine-4-carboxamide]
3 | > 20000 | 721 | C[C@@H](CO)NC(=O)c1cc(-c2ccc(CF)cc2)nn(-c2cnn(C)c2)c1=O [Example 287, 6-[4-(Fluoromethyl)phenyl]-N-[(2S)-1-hydroxypropan-2-yl]-2-(1-methyl-1H-pyrazol-4-yl)-3-oxo-2,3-dihydropyridazine-4-carboxamide]
4 | > 20000 | 820 | C[C@H](NC(=O)c1cc(-c2ccc(CF)cc2)nn(-c2cccnc2)c1=O)C(C)(C)O [Example 288, 6-[4-(Fluoromethyl)phenyl]-N-[(2S)-3-hydroxy-3-methylbutan-2-yl]-3-oxo-2-(pyridin-3-yl)-2,3-dihydropyridazine-4-carboxamide]
5 | > 20000 | 875 | Cn1cc(-n2nc(-c3ccc(Cl)cc3)cc(C(=O)N[C@H](CO)C(N)=O)c2=O)cn1 [Example 289, N-[(2R)-1-Amino-3-hydroxy-1-oxopropan-2-yl]-6-(4-chlorophenyl)-2-(1-methyl-1H-pyrazol-4-yl)-3-oxo-2,3-dihydropyridazine-4-carboxamide]
6 | > 20000 | 82.2 | O=C(NC[C@@H](O)C(F)(F)F)c1cc(-c2ccc(OC(F)(F)F)cc2)nn(-c2cccnc2)c1=O [Example 293, 3-Oxo-2-(pyridin-3-yl)-N-[(2R)-3,3,3-trifluoro-2-hydroxypropyl]-6-[4-(trifluoromethoxy)phenyl]-2,3-dihydropyridazine-4-carboxamide]
7 | > 20000 | 49.8 | C[C@@H](NC(=O)c1cc(-c2ccc(OC(F)(F)F)cc2)nn(-c2cccnc2)c1=O)C(C)(C)O [Example 294, N-[(2R)-3-Hydroxy-3-methylbutan-2-yl]-3-oxo-2-(pyridin-3-yl)-6-[4-(trifluoromethoxy)phenyl]-2,3-dihydropyridazine-4-carboxamide]
8 | > 20000 | 118 | O=C(NC[C@H](O)CF)c1cc(-c2ccc(OC(F)(F)F)cc2)nn(-c2cccnc2)c1=O [Example 296, N-[(2S)-3-Fluoro-2-hydroxypropyl]-3-oxo-2-(pyridin-3-yl)-6-[4-(trifluoromethoxy)phenyl]-2,3-dihydropyridazine-4-carboxamide]
9 | > 20000 | 81.5 | C[C@@H](NC(=O)c1cc(-c2ccc(Cl)cc2)nn(-c2cccnc2)c1=O)C(C)(C)O [Example 302, 6-(4-Chlorophenyl)-N-[(2R)-3-hydroxy-3-methylbutan-2-yl]-3-oxo-2-(pyridin-3-yl)-2,3-dihydropyridazine-4-carboxamide]
10 | > 20000 | 133 | C[C@@H](CO)NC(=O)c1cc(-c2ccc(Cl)cc2)nn(-c2cncc(Cl)c2)c1=O [Example 303, 6-(4-Chlorophenyl)-2-(5-chloropyridin-3-yl)-N-[(2S)-1-hydroxypropan-2-yl]-3-oxo-2,3-dihydropyridazine-4-carboxamide]
11 | > 20000 | 349 | Cc1cncc(-n2nc(-c3ccc(Cl)cc3)cc(C(=O)N[C@@H](C)CO)c2=O)c1 [Example 304, 6-(4-Chlorophenyl)-N-[(2S)-1-hydroxypropan-2-yl]-2-(5-methylpyridin-3-yl)-3-oxo-2,3-dihydropyridazine-4-carboxamide]
12 | > 20000 | 1.64 | Cn1cc(-n2nc(-c3ccc(OC(F)F)cc3)cc(C(=O)NC(C(C)(C)O)C(F)(F)F)c2=O)cn1 (stereo not drawn) [Example 305, 6-[4-(Difluoromethoxy)phenyl]-2-(1-methyl-1H-pyrazol-4-yl)-3-oxo-N-(1,1,1-trifluoro-3-hydroxy-3-methylbutan-2-yl)-2,3-dihydropyridazine-4-carboxamide]
13 | > 20000 | 1.85 | C[C@H](NC(=O)c1cc(-c2ccc(OC(F)(F)F)cc2)nn(-c2cnsc2)c1=O)C(C)(C)O [Example 312, N-[(2S)-3-Hydroxy-3-methylbutan-2-yl]-3-oxo-2-(1,2-thiazol-4-yl)-6-[4-(trifluoromethoxy)phenyl]-2,3-dihydropyridazine-4-carboxamide]
14 | > 20000 | 20.6 | C[C@H](NC(=O)c1cc(-c2ccc(Cl)cc2)nn(-c2cnn(C)c2)c1=O)C(C)(C)O [Example 316, 6-(4-Chlorophenyl)-N-[(2S)-3-hydroxy-3-methylbutan-2-yl]-2-(1-methyl-1H-pyrazol-4-yl)-3-oxo-2,3-dihydropyridazine-4-carboxamide]
15 | > 20000 | 50.6 | O=C(NC[C@H](O)C(F)(F)F)c1cc(-c2ccc(Cl)cc2)nn(-c2ccnnc2)c1=O [Example 321, 3-(4-Chlorophenyl)-6-oxo-N-[(2S)-3,3,3-trifluoro-2-hydroxypropyl]-6H-1,4′-bipyridazine-5-carboxamide]
16 | > 20000 | 242 | C[C@@H](NC(=O)c1cc(-c2ccc(Cl)cc2)nn(-c2cn[nH]c2)c1=O)C(C)(C)O [Example 325, 6-(4-Chlorophenyl)-N-[(2R)-3-hydroxy-3-methylbutan-2-yl]-3-oxo-2-(1H-pyrazol-4-yl)-2,3-dihydropyridazine-4-carboxamide]
17 | > 20000 | 0.504 | C[C@@H](NC(=O)c1cc(-c2ccc(Cl)cc2)nn(-c2cnsc2)c1=O)C(C)(C)O [Example 326, 6-(4-Chlorophenyl)-N-[(2R)-3-hydroxy-3-methylbutan-2-yl]-3-oxo-2-(1,2-thiazol-4-yl)-2,3-dihydropyridazine-4-carboxamide]
18 | > 20000 | 2.58 | C[C@@H](NC(=O)c1cc(-c2ccc(OC(F)(F)F)cc2)nn(-c2cnsc2)c1=O)C(C)(C)O [Example 327, N-[(2R)-3-Hydroxy-3-methylbutan-2-yl]-3-oxo-2-(1,2-thiazol-4-yl)-6-[4-(trifluoromethoxy)phenyl]-2,3-dihydropyridazine-4-carboxamide]
19 | > 20000 | 234 | CC(C)(O)CNC(=O)c1cc(-c2ccc(OC(F)F)cc2)nn(-c2cccnc2)c1=O [Example 331, 6-[4-(Difluoromethoxy)phenyl]-N-(2-hydroxy-2-methylpropyl)-3-oxo-2-(pyridin-3-yl)-2,3-dihydropyridazine-4-carboxamide]
20 | > 20000 | 94.5 | C[C@@H](CO)NC(=O)c1cc(-c2ccc(OC(F)F)cc2)nn(-c2cccnc2)c1=O [Example 332, 6-[4-(Difluoromethoxy)phenyl]-N-[(2S)-1-hydroxypropan-2-yl]-3-oxo-2-(pyridin-3-yl)-2,3-dihydropyridazine-4-carboxamide]
21 | > 20000 | 74.9 | C[C@H](NC(=O)c1cc(-c2ccc(OC(F)F)cc2)nn(-c2cccnc2)c1=O)C(C)(C)O [Example 333, 6-[4-(Difluoromethoxy)phenyl]-N-[(2S)-3-hydroxy-3-methylbutan-2-yl]-3-oxo-2-(pyridin-3-yl)-2,3-dihydropyridazine-4-carboxamide]
